Measured values as given in US20100298420A1, “Compositions and Methods for Intracellular Delivery” (Yissum, Research Development Company of the Hebrew …, priority 2001, published 2010).

Assays:
Format in all cases: cell-based
[1] = tested on: Bacillus Subtilis ATCC-6633; test: Susceptibility testing, zone of inhibition on agar; details: 37° C., 24 h
Protocol: (§1) Various concentrations of erythromycin in sterile water (1.25, 7.5, 10, 12.5 μg/ml) The bacterial strains used were:
(§2) Each erythromycin concentration was mixed with Composition I, Composition II and Standard solution with phosphate buffer saline (PBS, Biological Industries, Beit HaEmek Israel 1:1 by volume. 20 μl of Compositions I-II and standards containing various antibiotic concentrations was added to 6 mm wells on Petri plates containing Tryptic Soy Agar (TSA) inoculated with the microorganisms. The preparation was incubated aerobically at 37° C. for 24 h. The zone of inhibition for each sample was measured.

[2] = tested on: Staphylococcus Aureus ATCC-29213; test: Susceptibility testing, zone of inhibition on agar; details: 37° C., 24 h, in mm
Protocol: as §1, §2

[3] = tested on: Staphylococcus Aureus erythromycin resistant (clinical strain); test: Susceptibility testing, zone of inhibition on agar; details: 37° C., 24 h
Protocol: as §1, §2

[4] = tested on: Swiss albino mouse fibroblast cells (3T3); test: CLSM experiment: intracellular delivery of fluorescent probes
Protocol: Subconfluent Swiss albino mouse fibroblast cells (3T3) were grown in Dulbeco's Modified Eagles Medium (DMEM) on coverslips in wells of 3.5 cm in diameter for Confocal Laser Scanning Microscopy (CLSM) and in six-well plastic plates for flow cytometric analysis. The cells were washed twice with phosphate buffered saline (PBS), adjusted to 37° C. in the incubator, and washed again. Two ml of PBS were added to each well and 50 μl of the test solution was added (Compositions I-III, control systems A-B or any compositions containing PC*, RR or D-289 listed above). […] The coverslip were observed under a Sarastro-Phibos1000 CLS microscope equipped with a 488 nm argon ion laser beam and attached to a Universal Zeiss epifluorescence microscopy with an oil immerse Planapo 63×1.4 NA objective lens. Fluorescence emission was detected above 560 nm for RR, at 527 nm for D-289 and […] for calcein.

[5] = Erythromycin conc. 10 microgram/ml

Structure (SMILES) | zone of inhibition at 1.25 µg/mL ([1]; ATCC6633, Erythromycin conc. 1.25 microgram/ml) [mm] | zone of inhibition at 7.5 µg/mL ([1]; ATCC6633, Erythromycin conc. 7.5 microgram/ml) [mm] | Zone of inhibition ([2]; Erythromycin conc. 1.25 microgram/ml) | Zone of inhibition [2, 5] | zone of inhibition at 10 µg/mL [3, 5] [mm] | zone of inhibition at 12.5 µg/mL ([3]; Erythromycin conc. 12.5 microgram/ml) [mm] | Fluorescence in the nucleus of the cell [4]
CC[C@H]1OC(=O)[C@H](C)[C@@H](O[C@H]2C[C@@](C)(OC)[C@@H](O)[C@H](C)O2)[C@H](C)[C@@H](O[C@@H]2O[C@H](C)C[C@H](N(C)C)[C@H]2O)[C@](C)(O)C[C@@H](C)C(=O)[C@H](C)[C@@H](O)[C@]1(C)O [Standard, Erythromycin] | 7.83 ± 0.26 | 13.6 ± 0.38 | 0 | 13.67 ± 026 | 0 | 7.67 ± 0.26 | –
CCN(CC)c1ccc(C=Cc2cc[n+](C)cc2)cc1.[I-] [Composition D-289, 4-(4-diethylamino)styryl-N-methylpyridinium iodode] | – | – | – | – | – | – | fluorescence was also observed in the nucleus
